Measurements from PubChem BioAssay AID248 (DTP/NCI, 2004).
Inconclusive results and toxic doses are left out. Rule as the data show it: active = T/C of 150% or more; inactive = T/C below 125%.

Test system: L1210 leukemia ip in BDF1 mice, survival T/C
Experiment: NCI In Vivo Anticancer Drug Screen. Data for tumor model L1210 Leukemia (intraperitoneal) in B6D2F1 (BDF1) mice
Conditions: endpoint: mean survival time, higher = longer survival
Procedure, shortened: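 Tumor was transplanted into mice, which were then dosed with test compound or vehicle alone. Survival was recorded for each group, and the treated figure was expressed relative to the control figure.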

[1] = dose: 50.0 mg/kg/injection, schedule: Q01DX001 (ip), vehicle: saline with Tween-80
[2] = dose: 100.0 mg/kg/injection, schedule: Q01DX001 (ip), vehicle: saline with Tween-80
[3] = dose: 100.0 mg/kg/injection, schedule: Q04DX002 (ip), vehicle: saline with Tween-80
[4] = dose: 400.0 mg/kg/injection, schedule: Q04DX002 (ip), vehicle: saline with Tween-80
[5] = dose: 100.0 mg/kg/injection, schedule: Q04DX003 (ip), vehicle: saline
[6] = dose: 200.0 mg/kg/injection, schedule: Q04DX003 (ip), vehicle: saline
[7] = dose: 100.0 mg/kg/injection, schedule: Q01DX009 (ip), vehicle: Klucel (hydroxypropylcellulose) (HPC)
[8] = dose: 100.0 mg/kg/injection, schedule: Q04DX003 (ip), vehicle: Klucel (hydroxypropylcellulose) (HPC)
[9] = dose: 200.0 mg/kg/injection, schedule: Q01DX009 (ip), vehicle: Klucel (hydroxypropylcellulose) (HPC)
[10] = dose: 200.0 mg/kg/injection, schedule: Q04DX003 (ip), vehicle: Klucel (hydroxypropylcellulose) (HPC)
[11] = dose: 400.0 mg/kg/injection, schedule: Q01DX009 (ip), vehicle: Klucel (hydroxypropylcellulose) (HPC)
[12] = dose: 400.0 mg/kg/injection, schedule: Q04DX003 (ip), vehicle: Klucel (hydroxypropylcellulose) (HPC)
[13] = dose: 100.0 mg/kg/injection, schedule: Q01DX009 (ip), vehicle: saline with Tween-80
[14] = dose: 200.0 mg/kg/injection, schedule: Q01DX009 (ip), vehicle: saline with Tween-80
[15] = dose: 50.0 mg/kg/injection, schedule: Q04DX002 (ip), vehicle: saline with Tween-80
[16] = dose: 200.0 mg/kg/injection, schedule: Q04DX002 (ip), vehicle: saline with Tween-80
[17] = dose: 400.0 mg/kg/injection, schedule: Q01DX009 (ip), vehicle: saline with Tween-80
[18] = dose: 12.5 mg/kg/injection, schedule: Q01DX009 (ip), vehicle: saline
[19] = dose: 25.0 mg/kg/injection, schedule: Q01DX009 (ip), vehicle: saline
[20] = dose: 50.0 mg/kg/injection, schedule: Q01DX009 (ip), vehicle: saline

Measured: T/C

O=Nc1c(O)ccc2ccccc12
inactive: dose: 3.12 mg/kg/injection, schedule: Q01DX009 (ip), vehicle: Klucel (hydroxypropylcellulose) (HPC) 90 % of control | dose: 5.0 mg/kg/injection, schedule: Q01DX001 (ip), vehicle: saline 98 % of control | dose: 6.25 mg/kg/injection, schedule: Q01DX009 (ip), vehicle: Klucel (hydroxypropylcellulose) (HPC) 95 % of control | dose: 10.0 mg/kg/injection, schedule: Q01DX001 (ip), vehicle: saline 104 % of control | dose: 12.5 mg/kg/injection, schedule: Q01DX009 (ip), vehicle: Klucel (hydroxypropylcellulose) (HPC) 92 % of control | dose: 20.0 mg/kg/injection, schedule: Q01DX001 (ip), vehicle: saline 95 % of control | dose: 25.0 mg/kg/injection, schedule: Q01DX001 (ip), vehicle: saline with Tween-80 94 % of control | dose: 25.0 mg/kg/injection, schedule: Q01DX009 (ip), vehicle: Klucel (hydroxypropylcellulose) (HPC) 104 % of control | dose: 40.0 mg/kg/injection, schedule: Q01DX001 (ip), vehicle: saline 101 % of control | [1] 104 % of control | dose: 80.0 mg/kg/injection, schedule: Q01DX001 (ip), vehicle: saline 106 % of control | [2] 91 % of control

CCC(C(=O)Cl)c1ccc(-c2ccccc2)cc1 (stereo not drawn)
inactive: [1] 96 % of control | [2] 96 % of control | dose: 200.0 mg/kg/injection, schedule: Q01DX001 (ip), vehicle: saline with Tween-80 96 % of control

CCCCCCCCCCCCCCCCC(C(=O)OC)S(=O)(=O)O (stereo not drawn)
inactive: dose: 100.0 mg/kg/injection, schedule: Q04DX002 (ip), vehicle: saline 102 % of control | dose: 200.0 mg/kg/injection, schedule: Q04DX002 (ip), vehicle: saline 124 % of control | dose: 400.0 mg/kg/injection, schedule: Q04DX002 (ip), vehicle: saline 102 % of control

CN(C)NP(=O)(c1ccccc1)c1ccccc1
inactive: dose: 100.0 mg/kg/injection, schedule: Q01DX001 (ip), vehicle: saline 98 % of control | dose: 200.0 mg/kg/injection, schedule: Q01DX001 (ip), vehicle: saline 95 % of control | dose: 400.0 mg/kg/injection, schedule: Q01DX001 (ip), vehicle: saline 97 % of control

N#C/C(=C\C1CCC(Cl)C(Cl)C1)C1CCC([N+](=O)[O-])CC1 (stereo not drawn)
inactive: [3] 91 % of control | [4] 91 % of control

O=S(CCO)CCS(=O)CCO (stereo not drawn)
inactive: dose: 75.0 mg/kg/injection, schedule: Q01DX009 (ip), vehicle: saline 95 % of control | [5] 106 % of control | dose: 150.0 mg/kg/injection, schedule: Q01DX009 (ip), vehicle: saline 101 % of control | [6] 110 % of control | dose: 300.0 mg/kg/injection, schedule: Q01DX009 (ip), vehicle: saline 97 % of control | dose: 400.0 mg/kg/injection, schedule: Q04DX003 (ip), vehicle: saline 100 % of control

CCOC(=O)C1CCCC23CC(CC12)C(C)(C)C3Br (stereo not drawn)
inactive: [7] 100 % of control | [8] 94 % of control | [9] 94 % of control | [10] 95 % of control | [11] 94 % of control | [12] 103 % of control

O=C(O)C1CCC2(CCCCC2)CC1
inactive: dose: 25.0 mg/kg/injection, schedule: Q01DX009 (ip), vehicle: water 101 % of control | dose: 50.0 mg/kg/injection, schedule: Q01DX009 (ip), vehicle: water 93 % of control | dose: 100.0 mg/kg/injection, schedule: Q01DX009 (ip), vehicle: water 98 % of control | dose: 200.0 mg/kg/injection, schedule: Q01DX009 (ip), vehicle: water 92 % of control

O=c1c2ccccc2ccc2ccccc12
inactive: dose: 100.0 mg/kg/injection, schedule: Q01DX001 (ip), vehicle: Klucel (hydroxypropylcellulose) (HPC) 103 % of control | [7] 97 % of control | [8] 100 % of control | dose: 200.0 mg/kg/injection, schedule: Q01DX001 (ip), vehicle: Klucel (hydroxypropylcellulose) (HPC) 93 % of control | [9] 102 % of control | [10] 103 % of control | dose: 400.0 mg/kg/injection, schedule: Q01DX001 (ip), vehicle: Klucel (hydroxypropylcellulose) (HPC) 103 % of control | [11] 100 % of control | [12] 105 % of control

COC(=O)NC1c2ccccc2CCC1I (stereo not drawn)
inactive: dose: 50.0 mg/kg/injection, schedule: Q01DX009 (ip), vehicle: saline with Tween-80 94 % of control | [13] 90 % of control | [14] 92 % of control

Cn1nc(C#N)c(C#N)c1NC(=O)C(C)(C)C
inactive: [15] 92 % of control | [3] 103 % of control | [16] 106 % of control

CCCNC(=O)Nc1cc(C(F)(F)F)ccc1Cl
inactive: [13] 98 % of control | dose: 100.0 mg/kg/injection, schedule: Q04DX003 (ip), vehicle: saline with Tween-80 97 % of control | [14] 88 % of control | dose: 200.0 mg/kg/injection, schedule: Q04DX003 (ip), vehicle: saline with Tween-80 103 % of control | [17] 87 % of control | dose: 400.0 mg/kg/injection, schedule: Q04DX003 (ip), vehicle: saline with Tween-80 108 % of control

COc1ccc(OC)c(/C=N\NC(=O)N/N=C/c2cc(OC)ccc2OC)c1
inactive: [3] 101 % of control | [16] 101 % of control | [4] 95 % of control

CCC(C)N(CCCOC(=O)c1ccc(N)cc1)C(C)CC (stereo not drawn)
inactive: [18] 106 % of control | [19] 104 % of control | [20] 97 % of control

COc1ccccc1CCO
inactive: dose: 50.0 mg/kg/injection, schedule: Q01DX001 (ip), vehicle: carboxymethylcellulose (CMC) 86 % of control | dose: 100.0 mg/kg/injection, schedule: Q01DX001 (ip), vehicle: carboxymethylcellulose (CMC) 98 % of control | dose: 200.0 mg/kg/injection, schedule: Q01DX001 (ip), vehicle: carboxymethylcellulose (CMC) 98 % of control | dose: 400.0 mg/kg/injection, schedule: Q01DX001 (ip), vehicle: carboxymethylcellulose (CMC) 98 % of control

FC(F)(F)c1cccc(NC(=S)N/N=C/c2ccccc2)c1
inactive: [13] 92 % of control | [14] 97 % of control | [17] 94 % of control

C=CCNc1n[nH]c(=S)s1
inactive: [13] 101 % of control | [14] 95 % of control | [17] 98 % of control

C1=NC(c2ccccc2)=CN(C2CCCCC2)C1(c1ccccc1)C1CCCCC1 (stereo not drawn)
inactive: [15] 99 % of control | dose: 100.0 mg/kg/injection, schedule: Q04DX002 (ip), vehicle: Klucel (hydroxypropylcellulose) (HPC) 92 % of control | [3] 105 % of control | dose: 200.0 mg/kg/injection, schedule: Q04DX002 (ip), vehicle: Klucel (hydroxypropylcellulose) (HPC) 98 % of control | [16] 96 % of control | dose: 400.0 mg/kg/injection, schedule: Q04DX002 (ip), vehicle: Klucel (hydroxypropylcellulose) (HPC) 98 % of control

C=C(Br)CNC(C)=O
inactive: [18] 113 % of control | [19] 106 % of control | [20] 98 % of control | dose: 100.0 mg/kg/injection, schedule: Q01DX009 (ip), vehicle: saline 120 % of control | [5] 113 % of control | [6] 113 % of control
